Data: patent publication US20100144779A1, “Marine Alkalod Makaluvamines and Derivatives Thereof” (THE UAB RESEARCH FOUNDATION, priority 2007, published 2010)

Columns and labels:
[1] = target: T1, topoisomerase II (Homo sapiens, UniProt P11388); assay: Topoisomerase II drug screening kit (relaxation of plasmid DNA); assay type: biochemical; set-up: key to Topoisomerase II Inhibition: — none; + low; ++ moderate; +++ strong; settings: for Topoisomerase II Inhibition: 100 μM drug compound, topoisomerase II (4U), 500 ng plasmid DNA; for inhibition of topoisomerase II catalytic activity (in words): 100 μM makaluvamine derivative
T1 construct: purchased TopoGEN, Inc., Port Orange, Fla
T1 sequence (P11388 whole entry): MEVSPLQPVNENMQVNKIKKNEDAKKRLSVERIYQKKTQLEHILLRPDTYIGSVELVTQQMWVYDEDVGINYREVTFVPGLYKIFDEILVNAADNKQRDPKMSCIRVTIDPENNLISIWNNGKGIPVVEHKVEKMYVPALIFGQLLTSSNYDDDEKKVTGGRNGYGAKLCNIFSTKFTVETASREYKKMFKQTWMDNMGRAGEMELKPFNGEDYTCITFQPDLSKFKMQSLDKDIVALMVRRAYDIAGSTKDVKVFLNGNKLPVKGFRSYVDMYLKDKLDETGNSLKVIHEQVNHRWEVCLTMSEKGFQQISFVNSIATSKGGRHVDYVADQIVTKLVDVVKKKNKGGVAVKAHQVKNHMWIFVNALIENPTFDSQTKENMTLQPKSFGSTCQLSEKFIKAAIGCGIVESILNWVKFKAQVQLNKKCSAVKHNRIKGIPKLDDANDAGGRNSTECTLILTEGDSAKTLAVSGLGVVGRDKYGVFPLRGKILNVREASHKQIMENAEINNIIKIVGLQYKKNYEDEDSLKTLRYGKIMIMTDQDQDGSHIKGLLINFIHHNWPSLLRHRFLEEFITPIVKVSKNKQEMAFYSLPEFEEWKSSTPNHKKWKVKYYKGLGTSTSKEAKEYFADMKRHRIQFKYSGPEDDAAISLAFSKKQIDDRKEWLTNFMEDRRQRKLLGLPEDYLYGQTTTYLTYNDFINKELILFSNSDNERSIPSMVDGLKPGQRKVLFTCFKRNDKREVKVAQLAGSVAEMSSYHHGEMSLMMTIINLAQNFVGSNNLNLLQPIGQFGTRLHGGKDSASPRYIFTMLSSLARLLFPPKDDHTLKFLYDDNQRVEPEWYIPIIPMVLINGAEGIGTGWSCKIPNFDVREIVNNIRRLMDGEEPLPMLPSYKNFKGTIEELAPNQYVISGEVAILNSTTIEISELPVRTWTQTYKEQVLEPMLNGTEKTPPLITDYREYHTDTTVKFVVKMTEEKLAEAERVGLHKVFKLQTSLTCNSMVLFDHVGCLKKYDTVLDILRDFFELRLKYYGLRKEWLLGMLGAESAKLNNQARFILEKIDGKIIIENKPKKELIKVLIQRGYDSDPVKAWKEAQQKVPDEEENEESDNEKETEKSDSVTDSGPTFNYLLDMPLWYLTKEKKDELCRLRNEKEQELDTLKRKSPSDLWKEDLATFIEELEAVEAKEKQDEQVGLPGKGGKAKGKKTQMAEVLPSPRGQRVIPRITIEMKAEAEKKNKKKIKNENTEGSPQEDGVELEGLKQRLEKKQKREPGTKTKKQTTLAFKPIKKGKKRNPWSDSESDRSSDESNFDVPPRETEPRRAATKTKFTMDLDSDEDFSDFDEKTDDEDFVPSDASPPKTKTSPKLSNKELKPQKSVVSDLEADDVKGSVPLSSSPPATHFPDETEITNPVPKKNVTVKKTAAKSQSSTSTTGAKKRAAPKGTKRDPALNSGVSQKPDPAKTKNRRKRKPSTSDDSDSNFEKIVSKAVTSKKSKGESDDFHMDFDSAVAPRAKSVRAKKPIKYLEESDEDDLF
Description: In order to determine the effect of the makaluvamine derivatives of the present disclosure, the synthesized makaluvamine derivatives were screened for their ability to inhibit topoisomerase II activity in vitro. Topoisomerase II functions by generating a double-stranded DNA break followed by resealing of the break. Topoisomerase II inhibitors interfere with the breakage-rejoining reaction thereby trapping the enzyme in a cleavage complex. In order to determine if the disclosed makaluvamine derivatives inhibited topoisomerase II activity, nine of the derivatives were tested for topoisomerase II inhibitory activity using a topoisomerase-II drug screening kit (TopoGEN, Inc., Port Orange, Fla.) according to the manufacturer's instructions. The screening kit uses a supercoiled plasmid DNA substrate (pRYG) which contains one topoisomerase II cleavage/recognition site. […] Relaxed DNA was separated using non-ethidium bromide (EtBr) agarose gels, then stained with EtBr and quantified using Kodak Gel Logic Imaging System and Molecular Imaging software (Eastman Kodak Co., Rochester, N.Y.). Inhibition of relaxation of plasmid DNA or catalytic activity was reported as; − none, + low, ++ moderate, or +++ strong.

[2] = test system: K-562; assay: NCI60 cell line screen (SRB); assay type: cell-based, human; settings: K-562, Leukemia, 48 h
Experimental: (§1) This panel implements the NCI60 cell line screen, including leukemia, non-small cell lung cancer, colon cancer, central nervous system cancer, melanoma, ovarian cancer, renal cancer, prostate cancer and breast cancer. The cell lines tested are specified in Table 3.
(§2) Generally, the human tumor cell lines of the cancer screening panel are grown in RPMI 1640 medium containing 5% fetal bovine serum and 2 mM L-glutamine. For a typical screening experiment, cells are inoculated into 96 well microtiter plates in 100 μL at plating densities ranging from 5,000 to 40,000 cells/well depending on the doubling time of individual cell lines. After cell inoculation, the microtiter plates are incubated at 37° C., 5% CO2, 95% air and 100% relative humidity for 24 h prior to addition of experimental drugs. After 24 h, two plates of each cell line are fixed in situ with TCA, to represent a measurement of the cell population for each cell line at the time of drug addition (Tz). Experimental drugs are solubilized in dimethyl sulfoxide at 400-fold the desired final maximum test concentration and stored frozen prior to use. At the time of drug addition, an aliquot of frozen concentrate is thawed and diluted to twice the desired final maximum test concentration with complete medium containing 50 μg/ml gentamicin. Additional four, 10-fold or ½ log serial dilutions are made to provide a total of five drug concentrations plus control. Aliquots of 100 μl of these different drug dilutions are added to the appropriate microtiter wells already containing 100 μl of medium, resulting in the required final drug concentrations.
(§3) Following drug addition, the plates are incubated for an additional 48 h at 37° C., 5% CO2, 95% air, and 100% relative humidity. For adherent cells, the assay is terminated by the addition of cold TCA. Cells are fixed in situ by the gentle addition of 50 μl of cold 50% (w/v) TCA (final concentration, 10% TCA) and incubated for 60 minutes at 4° C. The supernatant is discarded, and the plates are washed five times with tap water and air dried. Sulforhodamine B (SRB) solution (100 μl) at 0.4% (w/v) in 1% acetic acid is added to each well, and plates are incubated for 10 minutes at room temperature. After staining, unbound dye is removed by washing five times with 1% acetic acid and the plates are air dried. Bound stain is subsequently solubilized with 10 mM trizma base, and the absorbance is read on an automated plate reader at a wavelength of 515 nm. For suspension cells, the methodology is the same except that the assay is terminated by fixing settled cells at the bottom of the wells by gently adding 50 μl of 80% TCA (final concentration, 16% TCA). Using the seven absorbance measurements (time zero, Tz, control growth, (control), and test growth in the presence of drug at the five concentration levels (Ti)), the percentage growth is calculated at each of the drug concentrations levels. Percentage growth inhibition is calculated as:
(§4) [(Ti−Tz)/(C−Tz)]×100 for concentrations for which Ti>/=Tz
(§5) [(Ti−Tz)/Tz]×100 for concentrations for which Ti<Tz.

[3] = test system: LOX IMVI; assay: NCI60 cell line screen (SRB); assay type: cell-based, human; settings: Melanoma, 48 h
Experimental: as §1, §2, §3, §4, §5

[4] = test system: MOLT-4; assay: NCI60 cell line screen (SRB); assay type: cell-based, human; settings: MOLT-4, Leukemia, 48 h
Experimental: as §1, §2, §3, §4, §5

[5] = test system: NCIH332M; assay: NCI60 cell line screen (SRB); assay type: cell-based, human; settings: Non-Small Cell Lung Cancer, 48 h
Experimental: as §1, §2, §3, §4, §5

[6] = test system: SF-295; assay: NCI60 cell line screen (SRB); assay type: cell-based, human; settings: SF-295, CNS Cancer, 48 h
Experimental: as §1, §2, §3, §4, §5

[7] = test system: SK-MEL-5; assay: NCI60 cell line screen (SRB); assay type: cell-based, human; settings: SK-MEL-5, Melanoma, 48 h
Experimental: as §1, §2, §3, §4, §5

[8] = test system: SN12C; assay: NCI60 cell line screen (SRB); assay type: cell-based, human; settings: Renal Cancer, 48 h
Experimental: as §1, §2, §3, §4, §5

[9] = test system: TK-10; assay: NCI60 cell line screen (SRB); assay type: cell-based, human; settings: TK-10, Renal Cancer, 48 h
Experimental: as §1, §2, §3, §4, §5

[10] = test system: MDM2; assay: Protein expression, Western blot in MCF-7 cells; assay type: cell-based, human; settings: for expression of MDM2: 1 μM, 6 h (FIG. 4A)
Experimental: (§6) In FIG. 4A, MCF-7 cells were exposed to 1 μM concentration of the indicated compounds for 6 hours. Western blots were probed with antibodies specific for the proteins indicated. Numbers below each lane show densitometry readings for each lane as compared to control. […] Western blots were probed with antibodies specific for the proteins indicated.
(§7) To determine the disclosed compounds effect on protein expression in human breast cancer cells, cultured MCF-7 cells were exposed to various concentrations of the test compounds for 6 h (FIG. 4A) or 24 h (FIG. 4B). Cell lysates were fractionated with identical amounts of protein by SDS-PAGE and transferred to Bio-Rad trans-Blot nitrocellulose membranes (Bio-Rad Laboratories, Hercules, Calif.). The nitrocellulose membrane was incubated in blocking buffer (Tris-buffered saline containing 0.1% Tween 20 and 5% nonfat milk) for 1 h at room temperature, then with the appropriate primary antibody overnight at 4° C. or 2 h at room temperature with gentle shaking. Finally, the membrane was washed three times with the washing buffer (Tris-buffered saline containing 0.1% Tween 20) for 15 min, incubated with goat anti mouse/rabbit IgG-horseradish peroxidase-conjugated antibody (Bio-Rad) for 1 h at room temperature, and washed again (in triplicate). The protein of interest was detected by enhanced chemiluminescence reagents from PerkinElmer LAS, Inc (Boston, Mass.).

[11] = test system: p21; assay: Protein expression, Western blot in MCF-7 cells; assay type: cell-based, human; settings: 1 μM, 6 h (FIG. 4A)
Experimental: as §6, §7

[12] = test system: p53; assay: Protein expression, Western blot in MCF-7 cells; assay type: cell-based, human; settings: 1 μM, 6 h (FIG. 4A)
Experimental: as §6, §7

| SMILES | Topoisomerase II Inhibition [1] | GI50 [2] | GI50 [3] | GI50 [4] | GI50 [5] | GI50 [6] | GI50 [7] | GI50 [8] | GI50 [9] | expression of MDM2 [10] | expression of p21 [11] | expression of p53 [12] | GI50 ([2]; Homo sapiens, K562) | GI50 ([3]; Homo sapiens) | GI50 ([4]; Homo sapiens) | GI50 ([5]; Homo sapiens, NCI-H332M) | GI50 ([6]; Homo sapiens) | GI50 ([7]; Homo sapiens) | GI50 ([8]; Homo sapiens) | GI50 ([9]; Homo sapiens) | other results |
| --- | --- | --- | --- | --- | --- | --- | --- | --- | --- | --- | --- | --- | --- | --- | --- | --- | --- | --- | --- | --- | --- |
| CNC1=CC2=NCCc3c[nH]c(c32)C1=O [Compound 4a] | — | 2190 nM | 3430 nM | 1970 nM | 2890 nM | 1210 nM | 1450 nM | 3060 nM | 15400 nM |  |  |  |  |  |  |  |  |  |  |  |  |
| O=C1C(NCc2ccccc2)=CC2=NCCc3c[nH]c1c32 [Compound 4c] | ++ | 2360 nM | 1810 nM | 315 nM | 628 nM | 1120 nM | 462 nM | 1890 nM | 4720 nM | inhibited the expression | decreased the expression | increased the expression |  |  |  |  |  |  |  |  | inhibition of topoisomerase II catalytic activity (in words) [1]: comparable to etoposide and m-AMSA |
| O=C1C(NCCc2ccccc2)=CC2=NCCc3c[nH]c1c32 [Compound 4d] | + |  |  |  |  |  |  |  |  | increased the expression | increased the expression | increased the expression |  |  |  |  |  |  |  |  | inhibition of topoisomerase II catalytic activity (in words) [1]: comparable to etoposide and m-AMSA |
| O=C(O)C(F)(F)F.O=C1C(NCCc2ccc3c(c2)OCO3)=CC2=NCCc3c[nH]c1c32 [Compound 6] |  |  |  |  |  |  |  |  |  |  |  | increased the expression | 3430 nM | 1680 nM | 2020 nM | 2820 nM | 1870 nM | 965 nM | 2690 nM | 4510 nM |  |
| COc1ccc(CCNC2=CC3=NCCc4c[nH]c(c43)C2=O)cc1OC.O=C(O)C(F)(F)F [Compound 20] |  |  |  |  |  |  |  |  |  | inhibited the expression | decreased the expression | decreased the expression | 16900 nM | 2340 nM | 4950 nM | 2840 nM | 1840 nM | 1330 nM | 3070 nM | 5100 nM |  |
| O=C(O)C(F)(F)F.O=C1C(NCc2ccc(F)cc2)=CC2=NCCc3c[nH]c1c32 [Compound 28] |  |  |  |  |  |  |  |  |  | inhibited the expression | decreased the expression | decreased the expression | 1070 nM | 1570 nM | 793 nM | 1170 nM | 1060 nM | 325 nM | 1950 nM | 3190 nM | expression level of MDM2 ([10]; 24 h (FIG. 4B)): decreased |
